What is called IC50 is the concentration at which inhibition is half-maximal. Higher therefore signals a need for much substance.

The target in this assay is T1, 11β-HSD1 (Homo sapiens, UniProt P28845).
T1 construct: detecting cortisol generated from cortisterone by human liver microsomes; from tissue; host or cells: human liver microsomes
In words: In vitro inhibition of 11β-HSD1, HTRF detection of cortisol generated from cortisone by human liver microsomes. It counts as biochemical. The following applies: 11β-HSD IC50 (nM), 1 hour at 37° C., pH 6.0, NADPH 200 μM, cortisone 80 nM, inhibition relative to carbenoxolone signal. In short, it runs like this:
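Cortisol formed from cortisone by human liver microsomes quantified by competitive HTRF immunoassay (XL665-cortisol, Eu-cryptate anti-cortisol antibody), 2 h detection, Em665/Em615 ratio converted via cortisol calibration curve. Percent inhibition relative to carbenoxolone signal; IC50 from curves.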
(In TR-FRET formats the signal depends on donor and acceptor labels being close together.)

T1 sequence (P28845 whole entry): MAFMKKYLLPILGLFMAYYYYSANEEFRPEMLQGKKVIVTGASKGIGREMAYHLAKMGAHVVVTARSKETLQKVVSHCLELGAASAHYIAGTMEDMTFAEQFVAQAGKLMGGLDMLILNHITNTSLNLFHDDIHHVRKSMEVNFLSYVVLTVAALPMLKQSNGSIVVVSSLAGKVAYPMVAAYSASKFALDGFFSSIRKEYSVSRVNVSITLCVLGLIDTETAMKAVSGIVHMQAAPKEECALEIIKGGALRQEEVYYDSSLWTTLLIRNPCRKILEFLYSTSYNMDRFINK

Molecule `CC1(C)[C@H]2Cc3ccccc3[C@]1(C)CCN2C(=O)c1ccc2cn[nH]c2c1` [Example 285, (1H-Indazol-6-yl)-[(2R,6S)-6,11,11-trimethyl-1,2,5,6-tetrahydro-4H-2,6-methano-benzo[d]azocin-3-yl]-methanone] came in with an IC50 of 150 nM. Consider `CC1(C)[C@H]2Cc3ccccc3[C@]1(C)CCN2C(=O)c1ccc(N)cc1` [Example 286, (4-Amino-phenyl)-[(2R,6S)-6,11,11-trimethyl-1,2,5,6-tetrahydro-4H-2,6-methano-benzo[d]azocin-3-yl]-methanone], for which the IC50 is 47 nM.

The molecule `CC1(C)[C@H]2Cc3ccccc3[C@]1(C)CCN2C(=O)c1ccc2c(c1)C(=O)CC2` [Example 288, 6-[(2R,6S)-6,11,11-Trimethyl-1,2,5,6-tetrahydro-4H-2,6-methano-benzo[d]azocine-3-carbonyl)-indan-1-one] returned an IC50 of 901 nM. In turn, `C[C@@H]1[C@H]2Cc3ccc(-c4ccc(=O)n(C)c4)cc3[C@]1(C)CCN2C(=O)c1ccc2nc[nH]c2c1` [Example 289, 5-[(2R,6R,11S)-3-(3H-Benzoimidazole-5-carbonyl)-6,11-dimethyl-1,2,3,4,5,6-hexahydro-2,6-methano-benzo[d]azocin-8-yl]-1-methyl-1H-pyridin-2-one] gave an IC50 of 121 nM.

With `C[C@@H]1[C@H]2Cc3ccc(-c4ccc(=O)n(C)n4)cc3[C@]1(C)CCN2C(=O)c1ccc2nc[nH]c2c1` [Example 290, 6-[(2R,6R,11S)-3-(3H-Benzoimidazole-5-carbonyl)-6,11-dimethyl-1,2,3,4,5,6-hexahydro-2,6-methano-benzo[d]azocin-8-yl]-2-methyl-2H-pyridazin-3-one], the IC50 is 72 nM. On to `CC1(C)[C@H]2Cc3ccccc3[C@]1(C)CCN2C(=O)c1ccc2c(c1)C(O)CC2` (stereo partly drawn) [Example 291, (3-Hydroxy-indan-5-yl)-[(2R,6S)-6,11,11-trimethyl-1,2,5,6-tetrahydro-4H-2,6-methano-benzo[d]azocin-3-yl]-methanone], for which the IC50 came to 183 nM.

On to `CC1(O)CCc2ccc(C(=O)N3CC[C@@]4(C)c5ccccc5C[C@@H]3C4(C)C)cc21` (stereo partly drawn) [Example 292, (3-Hydroxy-3-methyl-indan-5-yl)-[(2R,6S)-6,11,11-trimethyl-1,2,5,6-tetrahydro-4H-2,6-methano-benzo[d]azocin-3-yl]-methanone], for which half-maximal inhibition (IC50) required 502 nM. In turn, `CC1(C)[C@H]2Cc3ccccc3[C@]1(C)CCN2C(=O)c1ccc2[nH]ncc2c1` [Example 293, (1H-Indazol-5-yl)-[(2R,6S)-6,11,11-trimethyl-1,2,5,6-tetrahydro-4H-2,6-methano-benzo[d]azocin-3-yl]-methanone] returned an IC50 of 27 nM. Under `CC1(C)[C@H]2Cc3ccccc3[C@]1(C)CCN2C(=O)c1ccc(N)c(Cl)c1` [Example 295, (4-Amino-3-chloro-phenyl)-[(2R,6S)-6,11,11-trimethyl-1,2,5,6-tetrahydro-4H-2,6-methano-benzo[d]azocin-3-yl]-methanone] stands 35 nM; under `CC1(C)[C@H]2Cc3ccccc3[C@]1(C)CCN2C(=O)c1ccc(N)c(F)c1` [Example 296, (4-Amino-3-fluoro-phenyl)-[(2R,6S)-6,11,11-trimethyl-1,2,5,6-tetrahydro-4H-2,6-methano-benzo[d]azocin-3-yl]-methanone], 32 nM.

The molecule `CC1(C)[C@H]2Cc3ccccc3[C@]1(C)CCN2C(=O)c1cc(F)c(F)c(F)c1` [Example 297, (3,4,5-Trifluoro-phenyl)-[(2R,6S)-6,11,11-trimethyl-1,2,5,6-tetrahydro-4H-2,6-methano-benzo[d]azocin-3-yl]-methanone] displayed an IC50 of 895 nM.

`CC1(C)[C@H]2Cc3ccccc3[C@]1(C)CCN2C(=O)c1ccc2c(c1)CC(=O)N2` [Example 298, 5-[(2R,6S)-6,11,11-Trimethyl-1,2,5,6-tetrahydro-4H-2,6-methano-benzo[d]azocine-3-carbonyl]-1,3-dihydro indol-2-one] yielded an IC50 of 99 nM.

`CC(=O)c1ccc(C(=O)N2CC[C@@]3(C)c4ccccc4C[C@@H]2C3(C)C)cc1` [Example 299]: the IC50 came to 352 nM. With `Cc1nc2c3c(ccc2o1)C[C@@H]1[C@@H](C)[C@@]3(C)CCN1C(=O)c1ccc2nc[nH]c2c1` [Example 300, (3H-Benzoimidazol-5-yl)-[(7R,11R,12S)-6,7,8,9,10,11-hexahydro-2,11,12-trimethyl-6,10-methano-oxazolo[4,5-h][3]benzazocin-8-yl]-methanone], the IC50 came out at 115 nM.

Take `Cc1nc2cc3c(cc2o1)C[C@H]1N(C(=O)c2ccc4nc[nH]c4c2)CC[C@]3(C)C1(C)C` [Example 301, (3H-Benzoimidazol-5-yl)-[(6R,10S)-5,6,7,8,9,10-hexahydro-2,10,12,12-tetramethyl-6,10-methano-oxazolo[4,5-i][3]benzazocin-7-yl]-methanone]: the IC50 was 32 nM. `CC1(C)[C@H]2Cc3cc4oc(C5CC5)nc4cc3[C@]1(C)CCN2C(=O)c1ccc2nc[nH]c2c1` [Example 302, (3H-Benzoimidazol-5-yl)-[(6R,10S)-2-cyclopropyl-5,6,7,8,9,10-hexahydro-10,12,12-trimethyl-6,10-methano-oxazolo[4,5-i][3]benzazocin-7-yl]-methanone]: it took 35 nM to reach half-maximal inhibition (IC50).

Turning to `CC1(C)[C@H]2Cc3ccccc3[C@]1(C)CCN2C(=O)c1ccc(O)nc1` [Example 303, (6-Hydroxy-pyridin-3-yl)-[(2R,6S)-6,11,11-trimethyl-1,2,5,6-tetrahydro-4H-2,6-methano-benzo[d]azocin-3-yl)-methanone], the IC50 amounted to 717 nM. The molecule `CC1(C)[C@H]2Cc3ccccc3[C@]1(C)CCN2C(=O)c1ccc(N)nc1` [Example 304, (6-Amino-pyridin-3-yl)-[(2R,6S)-6,11,11-trimethyl-1,2,5,6-tetrahydro-4H-2,6-methano-benzo[d]azocin-3-yl)-methanone] yielded an IC50 of 251 nM.

With `Cc1nc2cc3c(cc2o1)[C@]1(C)CCN(C(=O)c2ccc4nc[nH]c4c2)[C@H](C3)[C@H]1C` [Example 305, (3H-Benzoimidazol-5-yl)-[(6R,10R,12S)-5,6,7,8,9,10-hexahydro-2,10,12-trimethyl-6,10-methano-oxazolo[5,4-i][3]benzazocin 7-yl]-methanone], the IC50 turned out to be 153 nM. In the case of `CC(C)(O)c1ccc(C(=O)N2CC[C@@]3(C)c4ccccc4C[C@@H]2C3(C)C)cc1` [Example 306, [4-(1-Hydroxy-1-methyl-ethyl)-phenyl]-[(2R,6S)-6,11,11-trimethyl-1,2,5,6-tetrahydro-4H-2,6-methano-benzo[d]azocin-3-yl]-methanone], the IC50 worked out at 978 nM. Molecule `CC(=O)c1cccc(C(=O)N2CC[C@@]3(C)c4ccccc4C[C@@H]2C3(C)C)c1` [Example 307, 1-{3-[(2R,6S)-6,11,11-Trimethyl-1,2,5,6-tetrahydro-4H-2,6-methano-benzo[d]azocine-3-carbonyl]-phenyl}-ethanone] returned an IC50 of 979 nM. Under `CC1(C)C(=O)Nc2ccc(C(=O)N3CC[C@@]4(C)c5ccccc5C[C@@H]3C4(C)C)cc21` [Example 308, 3,3-Dimethyl-5-[(2R,6S)-6,11,11-trimethyl-1,2,5,6-tetrahydro-4H-2,6-methano-benzo[d]azocine-3-carbonyl]-1,3-dihydro-indol-2-one] stands 210 nM. `CC12CCN(C(=O)c3ccc4[nH]cnc4c3)C(Cc3cccc(-c4cccnc4)c31)C2(C)C` (centres unmarked) [Example 309, (1H-Benzoimidazol-5-yl)-(6,11,11-trimethyl-7-pyridin-3-yl-1,2,5,6-tetrahydro-4H-2,6-methano-benzo[d]azocin-3-yl)-methanone] gave a 50% inhibitory concentration (IC50) of 184 nM. In turn, `C[C@@H]1[C@H]2Cc3cc4nc(C5CC5)oc4cc3[C@]1(C)CCN2C(=O)c1ccc2nc[nH]c2c1` [Example 311, (3H-Benzoimidazol-5-yl)-[(6R,10R,12S)-2-cyclopropyl-5,6,7,8,9,10-hexahydro-10,12-dimethyl-6,10-methano-oxazolo[5,4-i][3]benzazocin-7-yl]-methanone] registered a 50% inhibitory concentration (IC50) of 424 nM. `CC(C)(C)c1nc2cc3c(cc2o1)C[C@H]1N(C(=O)c2ccc4nc[nH]c4c2)CC[C@]3(C)C1(C)C` [Example 312, (3H-Benzoimidazol-5-yl)-[(6R,10S)-2-tert-butyl-5,6,7,8,9,10-hexahydro-10,12,12-trimethyl-6,10-methano-oxazolo[4,5-i][3]benzazocin-7-yl]-methanone]: the IC50 came to 103 nM.

Regarding `Cc1cnc(-c2nc3cc4c(cc3o2)C[C@H]2N(C(=O)c3ccc5nc[nH]c5c3)CC[C@]4(C)C2(C)C)cn1` [Example 313, (3H-Benzoimidazol-5-yl)-[(6R,10S)-5,6,7,8,9,10-hexahydro-10,12,12-trimethyl-2-(5-methyl-pyrazin-2-yl)-6,10-methano-oxazolo[4,5-i][3]benzazocin-7-yl]-methanone], half-maximal inhibition (IC50) required 61 nM. With `CC(O)c1cccc(C(=O)N2CC[C@@]3(C)c4ccccc4C[C@@H]2C3(C)C)c1` (stereo partly drawn) [Example 314, [3-(1-Hydroxy-ethyl)-phenyl]-[(2R,6S)-6,11,11-trimethyl-1,2,5,6-tetrahydro-4H-2,6-methano-benzo[d]azocin-3-yl]-methanone], the IC50 was determined as 162 nM. `Cc1ncc(-c2ccc3c(c2)[C@]2(C)CCN(C(=O)c4ccc5nc[nH]c5c4)[C@H](C3)[C@H]2C)cn1` [Example 315, (3H-Benzoimidazol-5-yl)-[(2R,6R,11S)-6,11-dimethyl-8-(2-methyl-pyrimidin-5-yl)-1,2,5,6-tetrahydro-4H-2,6-methano-benzo[d]azocin-3-yl]-methanone] returned an IC50 of 61 nM. `CC12CCN(C(=O)c3ccc4nc[nH]c4c3)C(Cc3cccc(C#N)c31)C2(C)C` (centres unmarked) [Example 316, 3-(1H-Benzoimidazole-5-carbonyl)-6,11,11-trimethyl-1,2,3,4,5,6-hexahydro-2,6-methano-benzo[d]azocine-7-carbonitrile] gave an IC50 of 32 nM.

The record behind these values is patent publication US8859580B2 (Boehringer Ingelheim International GmbH, priority 2007, dated 2014).
